Our source for the IC50 values is ChEMBL document CHEMBL1139137, “Modifications of the GSK3beta substrate sequence to produce substrate-mimetic inhibitors of Akt as potential anti-cancer therapeutics” (Bioorg Med Chem Lett, 2007).

Starred links: 1 amine or outer side, 2 acyl side, 3 side chain; linkers in the order of their positions; H or OH if unused. Non-standard residues stand in square brackets, D forms with d. Residues, ends and D or L forms follow the SMILES beside them. *: point of attachment. NH(2-(1-naphthyl)ethyl) = c1ccc2c(CCN*)cccc2c1; NHCH2CH2(piperidin-1-yl) = C1CCN(CCN*)CC1; X4 = c1ccc(CC2CCN(CCN*)CC2)cc1; X1 = CC(=O)Nc1cccc(OCCCN*)c1; X2 = c1ccc2cc(CCN*)ccc2c1; 4Abz = Nc1ccc(C(=O)O)cc1; X3 = CCCCCc1ccc(CN*)cc1; CO = O=C([*:1])[*:2]; NHBn = c1ccc(CN*)cc1; NHHex = CCCCCCN* Some results are limits rather than exact numbers.

A word on the IC50: it is the concentration that inhibits the measured activity by half. Read a low IC50 as inhibition by little substance.

The target of this experiment is RAC-alpha serine/threonine-protein kinase (Homo sapiens, UniProt P31749). The experiment can be described thus: Inhibition of Akt after 1 hr by fluorescence polarization assay.
Chain of RAC-alpha serine/threonine-protein kinase (P31749 whole entry): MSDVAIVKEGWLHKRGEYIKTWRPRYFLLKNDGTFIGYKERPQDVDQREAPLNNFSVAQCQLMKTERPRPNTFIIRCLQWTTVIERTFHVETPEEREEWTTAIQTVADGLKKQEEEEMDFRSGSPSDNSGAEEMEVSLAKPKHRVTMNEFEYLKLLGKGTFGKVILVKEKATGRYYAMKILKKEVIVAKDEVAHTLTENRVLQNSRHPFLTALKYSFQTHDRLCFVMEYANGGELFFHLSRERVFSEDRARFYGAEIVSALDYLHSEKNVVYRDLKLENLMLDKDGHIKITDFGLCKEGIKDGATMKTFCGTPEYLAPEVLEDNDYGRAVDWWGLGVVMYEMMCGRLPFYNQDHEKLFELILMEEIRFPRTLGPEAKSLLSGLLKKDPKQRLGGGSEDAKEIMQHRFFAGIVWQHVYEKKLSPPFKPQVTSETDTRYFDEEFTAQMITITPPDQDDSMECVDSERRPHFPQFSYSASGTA
`CC(C)[C@H](NC(=O)c1ccc(NCCNC(=N)N)cc1)C(=O)N[C@@H](Cc1ccccc1)C(=O)NCc1ccccc1` had an IC50 of 390 µM.
For `CC(C)[C@H](NC(=O)c1ccc(CNC(=N)N)cc1)C(=O)N[C@@H](Cc1ccccc1)C(=O)NCc1ccccc1` the value was greater than 500 µM.
Then `CC(=O)N[C@@H](CCCN=C(N)N)C(=O)Nc1ccc(C(=O)N[C@H](C(=O)N[C@@H](Cc2ccccc2)C(=O)NCCc2ccc3ccccc3c2)C(C)C)cc1`, with 51 µM; and `CC(=O)N[C@@H](CCCNC(=N)N)C(=O)Nc1ccc(C(=O)N[C@H](C(=O)N[C@@H](Cc2ccccc2)C(=O)NCCc2cccc3ccccc23)C(C)C)cc1`, with 89 µM.
For the molecule `CC(C)[C@H](NC(=O)c1ccc(CCN=C(N)N)cc1)C(=O)N[C@@H](Cc1ccccc1)C(=O)NCc1ccccc1`, the IC50 stood at 120 µM.
Then `CC(C)[C@H](NC(=O)c1ccc(N(CC(=O)NC(C)(C)C)C(=O)CCCCNC(=N)N)cc1)C(=O)N[C@@H](Cc1ccccc1)C(=O)NCc1ccccc1`, with 58 µM.
For `CCCCCCNC(=O)[C@H](Cc1ccccc1)NC(=O)[C@@H](NC(=O)c1ccc(NC(=O)[C@H](CCCNC(=N)N)NC(C)=O)cc1)C(C)C` the value was 163 µM; for `CC(C)[C@H](NC(=O)c1ccc(NC(=N)N)cc1)C(=O)N[C@@H](Cc1ccccc1)C(=O)NCc1ccccc1`, 77 µM.
Turning to `CCCCCc1ccc(CNC(=O)[C@H](Cc2ccccc2)NC(=O)[C@@H](NC(=O)c2ccc(NC(=O)[C@H](CCCN=C(N)N)NC(C)=O)cc2)C(C)C)cc1`, the IC50 is 104 µM.
In turn, `CC(C)[C@H](NC(=O)c1ccc(N(CC(=O)NCc2ccccc2)C(=O)CCCCNC(=N)N)cc1)C(=O)N[C@@H](Cc1ccccc1)C(=O)NCc1ccccc1` yielded an IC50 of 14 µM.
For `CC(C)[C@H](NC(=O)c1ccc(NC(=O)CCCCNC(=N)N)cc1)C(=O)N[C@@H](Cc1ccccc1)C(=O)NCc1ccccc1` the value was 193 µM.
For `CC(=O)NCC(=O)N[C@@H](C)C(=O)N1CCC[C@H]1C(=O)N[C@@H](C)C(=O)Nc1ccc(C(=O)N[C@H](C(=O)N[C@@H](Cc2ccccc2)C(=O)NCc2ccccc2)C(C)C)cc1` (Ac-GAPA[4Abz]VF-NHBn) the value was greater than 500 µM.
Consider `CC(=O)NCC(=O)N[C@@H](C)C(=O)N1CCC[C@H]1C(=O)N[C@@H](CCCNC(=N)N)C(=O)Nc1ccc(C(=O)N[C@H](C(=O)N[C@@H](Cc2ccccc2)C(=O)NCc2ccccc2)C(C)C)cc1` (Ac-GAPR[4Abz]VF-NHBn), for which 41 µM corresponded to half-maximal inhibition (IC50).
For `CC(=O)NCC(=O)N[C@@H](CCCN=C(N)N)C(=O)N1CCC[C@H]1C(=O)N[C@@H](C)C(=O)Nc1ccc(C(=O)N[C@H](C(=O)N[C@@H](Cc2ccccc2)C(=O)NCc2ccccc2)C(C)C)cc1` (Ac-GRPA[4Abz]VF-NHBn) the value was 79 µM; for `CC(=O)NCC(=O)N[C@@H](CCCNC(=N)N)C(=O)N1CCC[C@H]1C(=O)N[C@@H](CCCNC(=N)N)C(=O)N[C@@H](C)C(=O)N[C@@H](C)C(=O)N[C@H](C(=O)N[C@@H](Cc1ccccc1)C(=O)NCc1ccccc1)C(C)C` (Ac-GRPRAAVF-NHBn), 438 µM; for `CC(=O)NCC(=O)N[C@@H](CCCNC(=N)N)C(=O)N1CCC[C@H]1C(=O)N[C@@H](CCCNC(=N)N)C(=O)N[C@H](C(=O)N[C@H](C(=O)N[C@H](C(=O)N[C@@H](Cc1ccccc1)C(=O)NCc1ccccc1)C(C)C)[C@@H](C)O)[C@@H](C)O` (Ac-GRPRTTVF-NHBn), 239 µM.
Molecule `CCCCCCNC(=O)[C@H](Cc1ccccc1)NC(=O)[C@@H](NC(=O)c1ccc(NC(=O)[C@H](CCCN=C(N)N)NC(=O)[C@@H]2CCCN2C(=O)[C@H](CCCN=C(N)N)NC(=O)CNC(C)=O)cc1)C(C)C` (Ac-GRPR[4Abz]VF-NHHex) returned a half-maximal inhibitory concentration (IC50) of 52 µM.
For `CC(=O)NCC(=O)N[C@@H](CCCNC(=N)N)C(=O)N1CCC[C@H]1C(=O)N[C@@H](CCCNC(=N)N)C(=O)Nc1ccc(C(=O)N[C@H](C(=O)N[C@@H](Cc2ccccc2)C(=O)NCCCOc2cccc(NC(C)=O)c2)C(C)C)cc1` (Ac-GRPR[4Abz]VF-X1) the value was 322 µM; for `CC(=O)NCC(=O)N[C@@H](CCCN=C(N)N)C(=O)N1CCC[C@H]1C(=O)N[C@@H](CCCN=C(N)N)C(=O)Nc1ccc(C(=O)N[C@H](C(=O)N[C@@H](Cc2ccccc2)C(=O)NCCc2ccc3ccccc3c2)C(C)C)cc1` (Ac-GRPR[4Abz]VF-X2), 36 µM.
Then `CCCCCc1ccc(CNC(=O)[C@H](Cc2ccccc2)NC(=O)[C@@H](NC(=O)c2ccc(NC(=O)[C@H](CCCN=C(N)N)NC(=O)[C@@H]3CCCN3C(=O)[C@H](CCCN=C(N)N)NC(=O)CNC(C)=O)cc2)C(C)C)cc1` (Ac-GRPR[4Abz]VF-X3), with 96 µM.
In turn, `CC(=O)NCC(=O)N[C@@H](CCCNC(=N)N)C(=O)N1CCC[C@H]1C(=O)N[C@@H](CCCNC(=N)N)C(=O)Nc1ccc(C(=O)N[C@H](C(=O)N[C@@H](Cc2ccccc2)C(=O)NCCN2CCC(Cc3ccccc3)CC2)C(C)C)cc1` (Ac-GRPR[4Abz]VF-X4) came in with an IC50 of 94 µM.
The molecule `CC(=O)NCC(=O)N[C@@H](CCCNC(=N)N)C(=O)N1CCC[C@H]1C(=O)N[C@@H](CCCNC(=N)N)C(=O)Nc1ccc(C(=O)N[C@H](C(=O)N[C@@H](Cc2ccccc2)C(=O)NCCc2cccc3ccccc23)C(C)C)cc1` (Ac-GRPR[4Abz]VF-{NH(2-(1-naphthyl)ethyl)}) gave an IC50 of 62 µM.
In the case of `CC(=O)NCC(=O)N[C@@H](CCCNC(=N)N)C(=O)N1CCC[C@H]1C(=O)N[C@@H](CCCNC(=N)N)C(=O)Nc1ccc(C(=O)N[C@H](C(=O)N[C@@H](Cc2ccccc2)C(=O)NCCN2CCCCC2)C(C)C)cc1` (Ac-GRPR[4Abz]VF-{NHCH2CH2(piperidin-1-yl)}), the IC50 is greater than 500 µM.
For `CC(=O)N[C@@H](CCCN=C(N)N)C(=O)Nc1ccc(C(=O)N[C@H](C(=O)N[C@@H](Cc2ccccc2)C(=O)NCc2ccccc2)C(C)C)cc1` (Ac-R[4Abz]VF-NHBn) the value was 119 µM.
In the case of `C[C@@H](O)[C@H](NC(=O)[C@H](CCCNC(=N)N)NC(=O)[C@@H]1CCCN1C(=O)[C@H](CCCNC(=N)N)NC(=O)CNC(=O)O)C(=O)N[C@H](C(=O)N[C@@H](CC(N)=O)C(=O)N[C@@H](Cc1ccccc1)C(=O)O)[C@@H](C)O` ({CO}-GRPRTTNF-OH), inhibition was half-maximal at 229 µM (IC50).
For Ac-GRPRTTAF-OH the value was 409 µM.
In turn, Ac-GRPRTTCF-OH displayed an IC50 of 241 µM.
Then Ac-GRPRTTFF-OH, with greater than 500 µM; and Ac-GRPRTTHF-OH, with greater than 500 µM.
For Ac-GRPRTTVF-OH the value was 445 µM.
Ac-GRPRTTWF-OH gave an IC50 greater than 500 µM.
